# In patent US20220087990A1, “APPLICATION OF RIFAMYCIN-QUINOLIZIDONE CONJUGATE MOLECULE AND PHARMACEUTICALLY ACCEPTABLE SALT THEREOF” (priority 2019, published 2022):
# Where two headings read alike, the source gives them in different places.
# Assays:
# Type in all cases: cell-based
# [1] = system: methicillin-resistant Staphylococcus aureus (MRSA) isolates; assay: MIC measured by agar dilution method (CLSI); settings: Staphylococcus aureus, MRSA, agar dilution
# Description: (§1) Spontaneous mutation and minimal inhibit concentration (MIC) tested by agar dilution method, the above compounds are respectively prepared into a stock solution (100X) with a concentration 100 times the highest final concentration in corresponding solvents and used on the same day. Before use, I is further diluted with DMSO; and oxacillin, rifampicin and levofloxacin are further diluted with water.
# (§2) Bacterial isolates: Staphylococcus aureus isolates are retrieved from the −80° C. storage room of Micromyx Culture Collection, thawed, plated onto Tryptic Soy Agar+5% sheep blood (Remel; Lenexa, Kans.), and then incubated aerobically at 35° C. overnight. S. aureus ATCC 29213 (MRSA; MMX 0100) was included during testing only for the purpose of quality control. Test Media: The isolates were tested in both the agar dilution MIC assay and the spontaneous mutation assay using Mueller-Hinton Agar (MHA; BD/BBL; Lot No. 6229829 & 4216798). Inocula of each isolate were suspended in cation-adjusted Mueller-Hinton Broth (CAMHB) (BD/BBL; Lot Nos. 5257869 & 6258541). Sodium chloride (Sigma-Aldrich; Lot No. SLBL0434V) was added to CAMHB at a final concentration of 2% when testing oxacillin. Dilutions of bacterial cell suspensions for the purpose of performing colony counts were also made in CAMHB.
# (§3) MIC measured by agar dilution method: according to the recommendation from the Clinical and Laboratory Standards Institute (CLSI), the MIC value is measured by the agar dilution method. […] Each test agent was combined with molten MHA agar (50-55° C.) at a ratio of 0.2 mL of 100× test agent to 19.8 mL agar in a sterile tube, mixed gently, and then poured into a sterile petri plate (BD Falcon). Plates were allowed to solidify at room temperature. A 0.5 McFarland standard bacterial suspension was prepared, diluted 1:10 in CAMHB, and transferred to the wells of a stainless steel replicator block before stamping onto plates containing drug, resulting in 10^4 CFU/spot. After allowing the inoculum to dry on the surface of the agar, the plates were inverted, incubated aerobically at 35° C. for 20-24 hr, and inspected for growth.
# [2] = system: Staphylococcus aureus ATCC 29213; assay: MIC measured by fluid broth microdilution method (quality control); settings: ATCC29213
# [3] = system: Staphylococcus aureus ATCC 29213; assay: MIC measured by agar dilution method, quality control strain; settings: strain 100, MSSA QC strain
# Description: as §1, §2, §3
# In parallel experiments, a standard bacterium suspension with a […] turbidity of 0.5 is prepared as a standard inoculum for agar dilution analysis (10^4 CFU/point). […] In this step, the broths and drugs used in the spontaneous mutation analysis are used to confirm that the concentration of the drug stock solution can inhibit the growth of the standard inoculum. The quality of the levofloxacin stock solution is controlled by a standard inoculum and levofloxacin of 8-0.008 μg/mL, and separate agar dilution analysis is performed. […]
# [4] = system: Staphylococcus aureus MMX 3265, 3270, 3278, and 6312; settings: for Cell counts (mean): 1 used if no colonies
# Description: Each test agent stock solution was prepared at 100× the final desired test concentration for the spontaneous mutation frequency assay agar plates.
# The drug/agar mixture was dispensed into sterile 150×15 mm plates (BD Falcon) to a volume of 50 mL in each plate. The target inoculum for each spontaneous mutation plate was at least 10^9 CFU. Plates were allowed to solidify at room temperature.
# The inocula for the spontaneous mutation frequency assay were prepared by using sterile cotton swabs to harvest colonies from freshly grown isolates and preparing a dense cell suspension (approximately 1.70 on the turbidity meter) in 6 mL of CAMHB. The viable count of this suspension was determined by plating serial ten-fold dilutions onto MHA and taking the average of duplicate counts. For the spontaneous mutation assay, 0.25 mL of inoculum was spread onto the surface of duplicate 150×15 mm plates for each drug concentration tested, allowed to dry, and then the plates were inverted and incubated at 35° C. for 48 hr prior to counting viable colonies. The spontaneous mutation frequency was calculated using the following equation:
# Spontaneous mutation frequency=average number of colonies on selected plates/total number of cells incubated onto each plate
# If there were no colonies on the antibiotic selection plates, the spontaneous mutation frequency was reported as less than or equal to the mutation frequency that would have resulted from the presence of one colony (e.g. 1/total number of cells inoculated onto the plate).
# [5] = isolate 3265 LEV^R RIF^S, drug 0.5 μg/mL in plates (combination 0.5 each), inoculation 5.40E+09 CFU
# [6] = isolate 3265 LEV^R RIF^S, drug 2 μg/mL in plates (combination 2 each), inoculation 5.40E+09 CFU
# [7] = isolate 3265 LEV^R RIF^S, drug 8 μg/mL in plates (combination 8 each), inoculation 5.40E+09 CFU
# [8] = isolate 3270 LEV^R RIF^S, drug 0.5 μg/mL in plates (combination 0.5 each), inoculation 5.30E+09 CFU
# [9] = isolate 3270 LEV^R RIF^S, drug 2 μg/mL in plates (combination 2 each), inoculation 5.30E+09 CFU
# [10] = isolate 3270 LEV^R RIF^S, drug 8 μg/mL in plates (combination 8 each), inoculation 5.30E+09 CFU
# [11] = isolate 3278 LEV^S RIF^S, drug 0.5 μg/mL in plates (combination 0.5 each), inoculation 3.80E+09 CFU
# [12] = isolate 3278 LEV^S RIF^S, drug 2 μg/mL in plates (combination 2 each), inoculation 3.80E+09 CFU
# [13] = isolate 3278 LEV^S RIF^S, drug 8 μg/mL in plates (combination 8 each), inoculation 3.80E+09 CFU
# [14] = isolate 6312 LEV^R RIF^S, drug 0.5 μg/mL in plates (combination 0.5 each), inoculation 3.90E+09 CFU
# [15] = isolate 6312 LEV^R RIF^S, drug 2 μg/mL in plates (combination 2 each), inoculation 3.90E+09 CFU
# [16] = isolate 6312 LEV^R RIF^S, drug 8 μg/mL in plates (combination 8 each), inoculation 3.90E+09 CFU
structure (smiles),measurement,setting,value
CO[C@H]1/C=C/O[C@@]2(C)Oc3c(C)c(O)c4c(O)c(c(/C=N/N5CCN(C)CC5)c(O)c4c3C2=O)NC(=O)/C(C)=C\C=C\[C@H](C)[C@H](O)[C@@H](C)[C@@H](O)[C@@H](C)[C@H](OC(C)=O)[C@@H]1C [Rifampicin],MIC,"[1]; strain 3085, LEV^S RIF^S",0.015 µg/mL
same,MIC,"[1]; strain 3090, LEV^R RIF^S",0.008 µg/mL
same,MIC,"[1]; strain 3094, LEV^R RIF^S",0.015 µg/mL
same,MIC,"[1]; strain 3098, LEV^S RIF^S",0.015 µg/mL
same,MIC,"[1]; strain 3265, LEV^R RIF^S",0.008 µg/mL
same,MIC,"[1]; strain 3266, LEVR RIFS",0.008 µg/mL
same,MIC,"[1]; strain 3270, LEV^R RIF^S",0.015 µg/mL
same,MIC,"[1]; strain 3271, LEV^R RIF^S",0.015 µg/mL
same,MIC,"[1]; strain 3277, LEV^S RIF^S",0.015 µg/mL
same,MIC,"[1]; strain 3278, LEV^S RIF^S",0.015 µg/mL
same,MIC,"[1]; strain 6312, LEV^R RIF^S",0.015 µg/mL
same,MIC,"[1]; strain 6313, LEV^R RIF^S",0.015 µg/mL
same,MIC,"[1]; strain 6315, LEV^R RIF^S",0.015 µg/mL
same,MIC,"[1]; strain 6498, LEV^R RIF^S",0.015 µg/mL
same,MIC,"[1]; strain 6501, LEV^R RIF^S",0.015 µg/mL
same,MIC,"[1]; strain 6505, LEV^R RIF^S",0.015 µg/mL
same,MIC,"[1]; strain 7771, LEV^R RIF^S",0.008 µg/mL
same,MIC,"[1]; strain 7772, LEV^S RIF^S",0.015 µg/mL
same,MIC,"[1]; strain 7773, LEV^R RIF^S",0.015 µg/mL
same,MIC,"[1]; strain 7774, LEV^R RIF^S",0.015 µg/mL
same,MIC,"[1]; strain 7775, LEV^R",0.015 µg/mL
same,MIC,[2],0.008 µg/mL
same,MIC,[3],0.015 µg/mL
same,Cell counts (mean),"[4]; isolate 3265, drug 0.5 μg/mL",55
same,Cell counts (mean),"[4]; isolate 3265, drug 2 μg/mL",29
same,Cell counts (mean),"[4]; isolate 3265, drug 8 μg/mL",36
same,Cell counts plate A,[4]; [5],52
same,Cell counts plate B,[4]; [5],57
same,Mutation frequency,[4]; [5],1.01E−08
same,Cell counts plate A,[4]; [6],27
same,Cell counts plate B,[4]; [6],30
same,Mutation frequency,[4]; [6],5.28E−09
same,Cell counts plate A,[4]; [7],43
same,Cell counts plate B,[4]; [7],29
same,Mutation frequency,[4]; [7],6.67E−09
same,Cell counts (mean),"[4]; isolate 3270, drug 0.5 μg/mL",83
same,Cell counts (mean),"[4]; isolate 3270, drug 2 μg/mL",49
same,Cell counts (mean),"[4]; isolate 3270, drug 8 μg/mL",43
same,Cell counts plate A,[4]; [8],93
same,Cell counts plate B,[4]; [8],73
same,Mutation frequency,[4]; [8],1.57E−08
same,Cell counts plate A,[4]; [9],44
same,Cell counts plate B,[4]; [9],53
same,Mutation frequency,[4]; [9],9.15E−09
same,Cell counts plate A,[4]; [10],43
same,Cell counts plate B,[4]; [10],42
same,Mutation frequency,[4]; [10],8.02E−09
same,Cell counts (mean),"[4]; isolate 3278, drug 0.5 μg/mL",47
same,Cell counts (mean),"[4]; isolate 3278, drug 2 μg/mL",29
same,Cell counts (mean),"[4]; isolate 3278, drug 8 μg/mL",34
same,Cell counts plate A,[4]; [11],49
same,Cell counts plate B,[4]; [11],44
same,Mutation frequency,[4]; [11],1.22E−08
same,Cell counts plate A,[4]; [12],20
same,Cell counts plate B,[4]; [12],37
same,Mutation frequency,[4]; [12],7.50E−09
same,Cell counts plate A,[4]; [13],34
same,Cell counts plate B,[4]; [13],33
same,Mutation frequency,[4]; [13],8.82E−09
same,Cell counts (mean),"[4]; isolate 6312, drug 0.5 μg/mL",32
same,Cell counts (mean),"[4]; isolate 6312, drug 2 μg/mL",29
same,Cell counts (mean),"[4]; isolate 6312, drug 8 μg/mL",34
same,Cell counts plate A,[4]; [14],34
same,Cell counts plate B,[4]; [14],29
same,Mutation frequency,[4]; [14],8.08E−09
same,Cell counts plate A,[4]; [15],36
same,Cell counts plate B,[4]; [15],22
same,Mutation frequency,[4]; [15],7.44E−09
same,Cell counts plate A,[4]; [16],38
same,Cell counts plate B,[4]; [16],29
same,Mutation frequency,[4]; [16],8.59E−09
